In patent US10494337B2, “(20S)-1-α,25-dihydroxy-24,24-difluoro-19-nor-vitamin D3 analogs and their pharmaceutical uses” (Wisconsin Alumni Research Foundation, priority 2015, dated 2019):

Experiments:
[1] = Bone calcium mobilization in vivo (serum calcium); design: species or system Sprague-Dawley rats; conditions: rats on 0.02% Ca diet, four consecutive intraperitoneal doses, serum calcium 24 hours after the last dose
From the text: 2. In vivo Studies. Bone calcium mobilization and intestinal calcium transport.
Male, weanling Sprague-Dawley rats were purchased from Harlan (Indianapolis, Ind.). The animals were group housed and placed on Diet 11 (0.47% Ca)+AEK oil for one week followed by Diet 11 (0.02% Ca)+AEK oil for 3 weeks. The rats were then switched to a diet containing 0.47% Ca^26 for one week followed by two weeks on a diet containing 0.02% Ca. Dose administration began during the last week on 0.02% Ca diet. Four consecutive intraperitoneal doses were given approximately 24 hours apart. Twenty-four hours after the last dose, blood was collected from the severed neck and the concentration of serum calcium determined as a measure of bone calcium mobilization. The first 10 cm of the intestine was also collected for the intestinal calcium transport analysis using the everted gut sac method.^25

[2] = target: T1, full-length recombinant rat vitamin D receptor (Rattus norvegicus, UniProt P13053); assay: Competitive VDR binding; conditions: for VDR binding ratio: average ratio of the 1α,25-(OH)2D3 Ki to the Ki for the analogue
T1 sequence (P13053 1-423): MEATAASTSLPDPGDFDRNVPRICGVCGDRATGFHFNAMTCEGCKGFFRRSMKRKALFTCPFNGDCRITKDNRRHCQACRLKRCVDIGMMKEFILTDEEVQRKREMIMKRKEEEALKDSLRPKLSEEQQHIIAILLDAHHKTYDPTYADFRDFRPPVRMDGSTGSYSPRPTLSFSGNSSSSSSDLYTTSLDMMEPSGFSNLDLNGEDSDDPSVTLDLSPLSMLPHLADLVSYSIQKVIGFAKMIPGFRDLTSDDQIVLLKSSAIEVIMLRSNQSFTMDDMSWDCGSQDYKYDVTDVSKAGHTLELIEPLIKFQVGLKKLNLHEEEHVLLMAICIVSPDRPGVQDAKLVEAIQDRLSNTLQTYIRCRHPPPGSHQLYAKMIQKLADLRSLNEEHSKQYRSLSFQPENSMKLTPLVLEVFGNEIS
Protocol: (§1) The experiments were carried out in duplicate on two different occasions. […] The binding ratio is the average ratio of the 1□,25-(OH)2D3 Ki to the Ki for the analogue. ^bInduction of differentiation of HL-60 promyelocytes to monocytes by 1□,25-(OH)2D3 (1) and the synthesized vitamin D analogues. Differentiation state was determined by measuring the percentage of cells reducing nitro blue tetrazolium (NBT). The experiment was repeated in duplicate two times. […] The differentiation activity ratio is the average ratio of the 1□,25-(OH)2D3 ED50 to the ED50 for the analogue. ^cTranscriptional assay in rat osteosarcoma cells stably transfected with a 24-hydroxylase gene reporter plasmid. […] The luciferase activity ratio is the average ratio of the 1□,25-(OH)2D3 ED50 to the ED50 for the analogue.

HL-60 promyelocytes = assay: HL-60 differentiation (NBT reduction); conditions: for HL-60 differentiation ratio: average ratio of the 1α,25-(OH)2D3 ED50 to the ED50 for the analogue; for HL-60 differentiation activity, in words: compared with 1α,25-(OH)2D3
Protocol: as §1

[3] = system: 24-hydroxylase gene reporter plasmid in rat osteosarcoma cells; assay: 24-hydroxylase (24-OHase) transcription, luciferase reporter; conditions: for EC50: Rattus norvegicus, read-out: 24OHase transcription ED50; for 24OHase transcription Ratio: average ratio of the 1α,25-(OH)2D3 ED50 to the ED50 for the analogue
Protocol: as §1

[4] = background statement in the discussion; cited from earlier work
[5] = background statement in the discussion, compared with 1,25-(OH)2D3; cited from earlier work

Ki [2] [nM] | VDR binding ratio [2] | EC50 [3] [nM] | melting point [°C] | SMILES | bone calcium mobilization activity, in words [1] | HL-60 differentiation ratio (HL-60 promyelocytes) | 24OHase transcription Ratio [3] | HL-60 differentiation activity, in words (HL-60 promyelocytes) | bone calcium mobilizing activity of 2MD, in words [4] | intestinal calcium absorption of 2MD, in words [5] | VDR binding, in words ([2]; compared with 1α,25-(OH)2D3) | bone calcium mobilization activity, in words ([1]; listed as 24,24-difluoro substituted 19-nor-20S-2-methylene-1α,25-(OH)2D3) | 24-OHase (CYP24A1) transcriptional activity, in words ([3]; compared with 1α,25-(OH)2D3 or 2MD)
0.03 | 1.3 | 0.04 | – | C[C@@H](CCC(F)(F)C(C)(C)O)C1CCC2/C(=C/C=C3C[C@@H](O)C[C@H](O)C3)CCC[C@@]21C (stereo partly drawn) [Compound 6, (20S)-1α,25-Dihydroxy-24,24-difluoro-19-norvitamin D3] | highest bone mobilization activity | 50 | 5 | – | – | – | – | – | –
0.04 | 1 | 0.01 | 163 to 164 | C=C1[C@H](O)CC(=C/C=C2\CCC[C@@]3(C)C2CCC3[C@H](C)CCC(F)(F)C(C)(C)O)C[C@H]1O (stereo partly drawn) [Compound 3, (20R)-1α,25-Dihydroxy-24,24-difluoro-2-methylene-19-norvitamin D3] | not as potent in vivo as analogues 4 and 6 | 30 | 20 | high potency | – | – | – | – | –
0.03 | 1.3 | 0.007 | – | C=C1[C@H](O)CC(=C/C=C2\CCC[C@@]3(C)C2CCC3[C@@H](C)CCCC(C)(C)O)C[C@H]1O (stereo partly drawn) [Compound 2, 2-methylene-(20S)-1α,25-dihydroxy-19-nor vitamin D3, reference compound] | – | 150 | 29 | – | greatly increased bone calcium mobilizing activity | not increased above that found with 1,25-(OH)2D3 | – | – | –
0.02 | 2 | 0.04 | 182 to 183 | C[C@H](CCC(F)(F)C(C)(C)O)C1CCC2/C(=C/C=C3C[C@@H](O)C[C@H](O)C3)CCC[C@@]21C (stereo partly drawn) [Compound 5, (20R)-1α,25-Dihydroxy-24,24-difluoro-19-norvitamin D3] | not as potent in vivo as analogues 4 and 6 | 60 | 5 | high potency | – | – | slightly more effective than 1α,25-(OH)2D3 | – | –
0.03 | 1.3 | 0.02 | – | C=C1[C@H](O)CC(=C/C=C2\CCC[C@@]3(C)C2CCC3[C@@H](C)CCC(F)(F)C(C)(C)O)C[C@H]1O (stereo partly drawn) [Compound 4, (20S)-1α,25-Dihydroxy-24,24-difluoro-2-methylene-19-norvitamin D3] | highest bone mobilization activity | 100 | 10 | – | – | – | – | bone calcium mobilization activity rivaling 2-methylene-19-nor-(20S)-1,25-dihydroxyvitamin D3 or 2MD | almost as active as 2MD

SMILES | Ki [2] [nM] | VDR binding ratio [2] | EC50 [3] [nM] | melting point [°C] | bone calcium mobilization activity, in words [1] | HL-60 differentiation ratio (HL-60 promyelocytes) | 24OHase transcription Ratio [3] | HL-60 differentiation activity, in words (HL-60 promyelocytes) | bone calcium mobilizing activity of 2MD, in words [4] | intestinal calcium absorption of 2MD, in words [5] | VDR binding, in words ([2]; compared with 1α,25-(OH)2D3) | bone calcium mobilization activity, in words ([1]; listed as 24,24-difluoro substituted 19-nor-20S-2-methylene-1α,25-(OH)2D3) | 24-OHase (CYP24A1) transcriptional activity, in words ([3]; compared with 1α,25-(OH)2D3 or 2MD)
C=C1/C(=C\C=C2/CCC[C@@]3(C)C2CCC3[C@H](C)CCCC(C)(C)O)C[C@@H](O)C[C@@H]1O (stereo partly drawn) [Compound 1, 1α,25-dihydroxyvitamin D3, reference compound] | – | – | 0.2 | – | – | – | – | – | – | – | – | – | –
